We go through one compound from paper PMC5392334, “Discovery and characterization of a novel irreversible EGFR mutants selective and potent kinase inhibitor CHMFL-EGFR-26 with a distinct binding mode” (Oncotarget, 2017).

In one test the target is T1, ABL2 (Homo sapiens, UniProt P42684).
T1 construct: purchased DiscoveRx KINOMEscan
Nature of the test: KinomeScan. As to conditions: read-out: % control. Format: binding.

The next test has as its target T2, ACVR1B (Homo sapiens, UniProt P36896).
T2 construct: purchased DiscoveRx KINOMEscan
The test can be described thus: KinomeScan. Particulars: read-out: % control. Format: binding.

For the next test, the target named is T3, CDK3 (Homo sapiens, UniProt Q00526).
T3 construct: purchased DiscoveRx KINOMEscan
The test can be described thus: KinomeScan. Format: binding. Particulars: read-out: % control.

The target in the next test is T4, DCAMKL1 (Homo sapiens, UniProt O15075).
T4 construct: purchased DiscoveRx KINOMEscan
Nature of the test: KinomeScan. Format: binding. Particulars: read-out: % control.

The target in another test is T5, EPHB3 (Homo sapiens, UniProt P54753).
T5 construct: purchased DiscoveRx KINOMEscan
The test can be described thus: KinomeScan. Format: binding. Particulars: read-out: % control.

For another test, the target named is T6, FYN (Homo sapiens, UniProt P06241).
T6 construct: purchased DiscoveRx KINOMEscan
The test can be described thus: KinomeScan. As to conditions: read-out: % control. Format: binding.

In another test the target is T7, GRK3 (Homo sapiens, UniProt P35626).
T7 construct: purchased DiscoveRx KINOMEscan
Nature of the test: KinomeScan. Format: binding. As to conditions: read-out: % control.

Another test deals with T8, HIPK3 (Homo sapiens, UniProt Q9H422).
T8 construct: purchased DiscoveRx KINOMEscan
Nature of the test: KinomeScan. Format: binding. As to conditions: read-out: % control.

A further test deals with T9, IGF1R (Homo sapiens, UniProt P08069).
T9 construct: purchased DiscoveRx KINOMEscan
Nature of the test: KinomeScan. Format: binding. Particulars: read-out: % control.

A further test has as its target T10, MAP3K15 (Homo sapiens, UniProt Q6ZN16).
T10 construct: purchased DiscoveRx KINOMEscan
Nature of the test: KinomeScan. Format: binding. Particulars: read-out: % control.

Another test concerns the target T11, MYLK (Homo sapiens, UniProt Q15746).
T11 construct: purchased DiscoveRx KINOMEscan
The test can be described thus: KinomeScan. Format: binding. As to conditions: read-out: % control.

The target in the next test is T12, NLK (Homo sapiens, UniProt Q9UBE8).
T12 construct: purchased DiscoveRx KINOMEscan
The test can be described thus: KinomeScan. Format: binding. Particulars: read-out: % control.

In another test the target is T13, PCTK3 (Homo sapiens, UniProt Q07002).
T13 construct: purchased DiscoveRx KINOMEscan
Nature of the test: KinomeScan. Format: binding. As to conditions: read-out: % control.

The target of the next test is T14, PIK3CA(C420R) (Homo sapiens, UniProt P42336, C420R).
T14 construct: purchased DiscoveRx KINOMEscan
The test can be described thus: KinomeScan. Format: binding. As to conditions: read-out: % control.

The target of a further test is T15, PIK3CA(I800L) (Homo sapiens, UniProt P42336, I800L).
T15 construct: purchased DiscoveRx KINOMEscan
Nature of the test: KinomeScan. Format: binding. Particulars: read-out: % control.

In a further test the target is T16, PIK3CB (Homo sapiens, UniProt P42338).
T16 construct: purchased DiscoveRx KINOMEscan
The test can be described thus: KinomeScan. Format: binding. Particulars: read-out: % control.

The target in a further test is T17, RET(M918T) (Homo sapiens, UniProt P07949, M918T).
T17 construct: purchased DiscoveRx KINOMEscan
Nature of the test: KinomeScan. Particulars: read-out: % control. Format: binding.

The next test has as its target T18, RIPK1 (Homo sapiens, UniProt Q13546).
T18 construct: purchased DiscoveRx KINOMEscan
Nature of the test: KinomeScan. Format: binding. Particulars: read-out: % control.

Test [1] has as its target RPS6KA5(Kin.Dom.2-C-terminal) (Homo sapiens, UniProt O75582). The test can be described thus: KinomeScan. Format: binding. As to conditions: read-out: % control.
In a further test the target is T19, SNARK (Homo sapiens, UniProt Q9H093).
T19 construct: purchased DiscoveRx KINOMEscan
The test can be described thus: KinomeScan. As to conditions: read-out: % control. Format: binding.

For the next test, the target named is T20, TGFBR1 (Homo sapiens, UniProt P36897).
T20 construct: purchased DiscoveRx KINOMEscan
Nature of the test: KinomeScan. Format: binding. As to conditions: read-out: % control.

In a further test the target is T21, TTK (Homo sapiens, UniProt P33981).
T21 construct: purchased DiscoveRx KINOMEscan
The test can be described thus: KinomeScan. Format: binding. As to conditions: read-out: % control.

For the next test, the target named is T22, ULK2 (Homo sapiens, UniProt Q8IYT8).
T22 construct: purchased DiscoveRx KINOMEscan
The test can be described thus: KinomeScan. Particulars: read-out: % control. Format: binding.

For another test, the system named is BaF3-TEL-EGFR-C797S. The test can be described thus: Anti-proliferation, BaF3 isogenic cell lines (CellTiter-Glo). Format: cell-based. As to conditions: Mus musculus, 72 hours, triplet testing.

T13 sequence (Q07002 whole entry): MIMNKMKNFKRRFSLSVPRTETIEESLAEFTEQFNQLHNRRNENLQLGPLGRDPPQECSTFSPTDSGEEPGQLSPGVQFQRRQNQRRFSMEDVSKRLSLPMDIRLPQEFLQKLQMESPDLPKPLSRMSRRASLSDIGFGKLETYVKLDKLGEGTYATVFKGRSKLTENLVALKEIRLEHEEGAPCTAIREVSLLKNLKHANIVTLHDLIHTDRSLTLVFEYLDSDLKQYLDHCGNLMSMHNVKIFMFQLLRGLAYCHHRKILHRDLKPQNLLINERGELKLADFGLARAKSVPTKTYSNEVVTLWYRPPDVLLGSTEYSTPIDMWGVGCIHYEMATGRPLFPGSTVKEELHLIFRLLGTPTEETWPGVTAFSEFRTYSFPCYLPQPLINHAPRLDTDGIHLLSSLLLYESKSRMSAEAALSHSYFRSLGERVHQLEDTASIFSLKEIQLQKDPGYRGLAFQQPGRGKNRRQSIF
T4 sequence (O15075 whole entry): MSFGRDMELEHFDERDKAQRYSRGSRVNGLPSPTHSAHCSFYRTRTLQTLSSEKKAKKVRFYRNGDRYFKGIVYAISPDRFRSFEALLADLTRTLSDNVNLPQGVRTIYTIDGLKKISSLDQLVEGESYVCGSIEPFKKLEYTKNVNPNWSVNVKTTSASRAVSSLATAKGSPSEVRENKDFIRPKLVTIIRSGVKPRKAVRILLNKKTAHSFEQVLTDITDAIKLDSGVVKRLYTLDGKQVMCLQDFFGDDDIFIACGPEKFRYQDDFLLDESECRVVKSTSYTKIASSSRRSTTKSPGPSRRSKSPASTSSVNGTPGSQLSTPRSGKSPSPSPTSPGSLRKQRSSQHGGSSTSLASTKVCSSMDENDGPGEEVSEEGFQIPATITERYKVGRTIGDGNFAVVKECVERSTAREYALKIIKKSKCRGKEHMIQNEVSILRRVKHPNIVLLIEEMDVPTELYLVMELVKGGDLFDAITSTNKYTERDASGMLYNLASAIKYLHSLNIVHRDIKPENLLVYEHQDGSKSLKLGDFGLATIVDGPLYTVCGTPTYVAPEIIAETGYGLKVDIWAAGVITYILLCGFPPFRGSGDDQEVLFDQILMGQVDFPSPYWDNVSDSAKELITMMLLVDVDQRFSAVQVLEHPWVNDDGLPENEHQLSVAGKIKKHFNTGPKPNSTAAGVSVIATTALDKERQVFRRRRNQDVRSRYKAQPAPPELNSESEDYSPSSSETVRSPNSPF
T2 sequence (P36896 24-505): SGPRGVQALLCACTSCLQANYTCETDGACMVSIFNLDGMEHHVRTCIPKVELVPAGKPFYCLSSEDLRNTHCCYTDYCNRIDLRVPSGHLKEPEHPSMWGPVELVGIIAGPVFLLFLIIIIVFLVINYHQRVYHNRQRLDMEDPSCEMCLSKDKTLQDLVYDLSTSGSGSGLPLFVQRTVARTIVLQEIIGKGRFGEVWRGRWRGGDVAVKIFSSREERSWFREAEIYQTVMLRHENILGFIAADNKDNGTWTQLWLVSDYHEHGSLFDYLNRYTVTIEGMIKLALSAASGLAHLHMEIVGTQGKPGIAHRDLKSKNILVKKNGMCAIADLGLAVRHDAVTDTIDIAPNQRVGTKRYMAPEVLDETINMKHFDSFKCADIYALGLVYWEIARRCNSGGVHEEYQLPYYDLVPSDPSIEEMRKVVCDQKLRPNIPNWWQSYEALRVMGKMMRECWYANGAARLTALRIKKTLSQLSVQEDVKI
T1 sequence (P42684 whole entry): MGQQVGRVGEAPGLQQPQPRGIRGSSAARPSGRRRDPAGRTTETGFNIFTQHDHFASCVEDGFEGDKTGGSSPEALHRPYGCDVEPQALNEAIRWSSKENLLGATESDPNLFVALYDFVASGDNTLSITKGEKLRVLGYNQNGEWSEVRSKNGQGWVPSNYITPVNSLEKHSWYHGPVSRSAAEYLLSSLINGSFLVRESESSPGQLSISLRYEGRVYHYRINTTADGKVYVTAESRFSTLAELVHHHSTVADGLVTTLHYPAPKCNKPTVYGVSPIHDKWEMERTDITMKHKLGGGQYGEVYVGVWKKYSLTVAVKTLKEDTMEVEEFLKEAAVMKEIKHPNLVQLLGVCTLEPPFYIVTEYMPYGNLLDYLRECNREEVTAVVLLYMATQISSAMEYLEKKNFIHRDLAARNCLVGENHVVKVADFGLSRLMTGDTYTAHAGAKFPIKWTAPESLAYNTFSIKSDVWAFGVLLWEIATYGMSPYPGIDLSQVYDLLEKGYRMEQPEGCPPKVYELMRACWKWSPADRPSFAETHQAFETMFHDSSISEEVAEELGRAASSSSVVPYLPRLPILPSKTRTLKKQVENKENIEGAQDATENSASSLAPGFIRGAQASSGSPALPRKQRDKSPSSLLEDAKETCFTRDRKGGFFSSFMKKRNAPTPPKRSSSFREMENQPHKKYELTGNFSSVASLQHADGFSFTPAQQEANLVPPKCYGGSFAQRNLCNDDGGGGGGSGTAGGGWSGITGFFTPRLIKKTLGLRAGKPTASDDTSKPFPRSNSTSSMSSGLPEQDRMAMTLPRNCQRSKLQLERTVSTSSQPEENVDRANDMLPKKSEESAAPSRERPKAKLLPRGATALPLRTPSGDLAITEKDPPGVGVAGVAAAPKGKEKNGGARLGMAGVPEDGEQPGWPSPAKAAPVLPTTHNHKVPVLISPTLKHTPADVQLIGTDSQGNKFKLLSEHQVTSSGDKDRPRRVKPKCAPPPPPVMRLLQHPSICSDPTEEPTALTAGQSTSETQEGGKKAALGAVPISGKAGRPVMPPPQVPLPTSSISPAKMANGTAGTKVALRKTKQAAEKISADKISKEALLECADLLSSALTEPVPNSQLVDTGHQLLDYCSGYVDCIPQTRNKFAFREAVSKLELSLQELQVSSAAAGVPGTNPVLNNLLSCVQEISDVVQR
T14 sequence (P42336 whole entry C420R): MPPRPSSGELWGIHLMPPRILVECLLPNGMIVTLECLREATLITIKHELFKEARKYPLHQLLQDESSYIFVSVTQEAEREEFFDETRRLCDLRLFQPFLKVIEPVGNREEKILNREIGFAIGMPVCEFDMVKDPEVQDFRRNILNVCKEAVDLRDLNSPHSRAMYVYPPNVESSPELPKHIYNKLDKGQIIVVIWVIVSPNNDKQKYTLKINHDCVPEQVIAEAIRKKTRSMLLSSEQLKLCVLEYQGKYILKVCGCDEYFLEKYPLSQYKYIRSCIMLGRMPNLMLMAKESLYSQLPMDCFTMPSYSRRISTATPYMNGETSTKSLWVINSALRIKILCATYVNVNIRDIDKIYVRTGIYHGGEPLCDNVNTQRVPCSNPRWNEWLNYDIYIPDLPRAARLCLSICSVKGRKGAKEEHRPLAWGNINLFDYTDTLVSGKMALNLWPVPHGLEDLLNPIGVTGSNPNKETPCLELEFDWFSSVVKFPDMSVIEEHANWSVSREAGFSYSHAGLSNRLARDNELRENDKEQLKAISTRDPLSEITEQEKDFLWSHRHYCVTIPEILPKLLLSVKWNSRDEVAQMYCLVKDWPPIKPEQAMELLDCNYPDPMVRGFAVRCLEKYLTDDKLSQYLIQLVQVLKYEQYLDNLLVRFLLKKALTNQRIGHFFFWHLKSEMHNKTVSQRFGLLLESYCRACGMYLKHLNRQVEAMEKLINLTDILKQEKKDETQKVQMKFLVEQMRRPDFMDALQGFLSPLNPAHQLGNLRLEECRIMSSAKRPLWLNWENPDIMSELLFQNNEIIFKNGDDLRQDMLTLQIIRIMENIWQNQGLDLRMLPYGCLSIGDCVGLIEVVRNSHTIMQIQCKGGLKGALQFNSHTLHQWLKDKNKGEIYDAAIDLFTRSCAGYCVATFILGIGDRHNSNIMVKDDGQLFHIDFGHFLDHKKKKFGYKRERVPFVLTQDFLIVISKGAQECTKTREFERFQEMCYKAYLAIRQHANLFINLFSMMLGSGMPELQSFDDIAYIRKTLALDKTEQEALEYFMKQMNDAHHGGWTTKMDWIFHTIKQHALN
T12 sequence (Q9UBE8 whole entry): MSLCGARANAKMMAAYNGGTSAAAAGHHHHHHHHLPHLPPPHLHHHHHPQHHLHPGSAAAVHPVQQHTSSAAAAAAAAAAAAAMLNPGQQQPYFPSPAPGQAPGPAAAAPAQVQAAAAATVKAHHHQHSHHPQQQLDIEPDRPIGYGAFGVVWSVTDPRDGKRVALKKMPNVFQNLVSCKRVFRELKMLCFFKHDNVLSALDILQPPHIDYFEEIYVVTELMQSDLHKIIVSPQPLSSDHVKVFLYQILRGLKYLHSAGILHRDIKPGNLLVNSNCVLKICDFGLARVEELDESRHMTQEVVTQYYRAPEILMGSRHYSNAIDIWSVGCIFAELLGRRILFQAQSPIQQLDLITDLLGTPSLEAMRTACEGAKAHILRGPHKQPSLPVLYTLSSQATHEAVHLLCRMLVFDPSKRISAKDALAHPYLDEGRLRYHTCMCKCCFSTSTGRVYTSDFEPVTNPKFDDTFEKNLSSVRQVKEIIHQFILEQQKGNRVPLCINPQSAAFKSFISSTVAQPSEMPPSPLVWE
T15 sequence (P42336 whole entry I800L): as the sequence (P42336 whole entry C420R) above, with R420C, I800L counted along it
T20 sequence (P36897 34-503): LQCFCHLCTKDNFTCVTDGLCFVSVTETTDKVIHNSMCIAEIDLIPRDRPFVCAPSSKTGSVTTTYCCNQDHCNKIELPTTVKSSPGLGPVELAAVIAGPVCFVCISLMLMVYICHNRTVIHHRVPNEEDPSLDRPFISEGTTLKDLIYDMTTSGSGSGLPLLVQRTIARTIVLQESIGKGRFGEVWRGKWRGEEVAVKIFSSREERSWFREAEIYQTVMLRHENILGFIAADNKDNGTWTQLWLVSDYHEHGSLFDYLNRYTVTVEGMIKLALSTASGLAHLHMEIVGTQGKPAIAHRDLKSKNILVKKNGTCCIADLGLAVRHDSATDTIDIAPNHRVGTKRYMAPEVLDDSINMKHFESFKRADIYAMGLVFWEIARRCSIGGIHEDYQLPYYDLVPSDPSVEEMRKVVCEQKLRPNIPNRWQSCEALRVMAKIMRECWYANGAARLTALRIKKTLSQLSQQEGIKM

On to `C=CC(=O)N1CCC[C@@H](n2nc(-c3ccc(OCc4cccc(C)n4)c(Cl)c3)c3c(N)ncnc32)C1` [CHMFL-EGFR-26], for which the remaining binding at 1 µM was determined as 99% on ABL2; 30% on ACVR1B; 84% at CDK3; 88% at DCAMKL1; 100% on EPHB3; 90% at FYN. Moreover, the remaining binding at 1 µM at GRK3 turned out to be 100%; at HIPK3, 100%; at IGF1R, 100%; on MAP3K15 it was 100%; on MYLK, 100%; on NLK it was 70%. Moreover, the remaining binding at 1 µM amounted to 94% on PCTK3; 100% at PIK3CA(C420R); 100% on PIK3CA(I800L); 94% at PIK3CB; 100% at RET(M918T); 100% on RIPK1. Further, the remaining binding at 1 µM in test [1] is 100%; on SNARK, 25%; at TGFBR1, 7%; on TTK it was 95%; at ULK2 it was 97%. For the same compound, in the test on BaF3-TEL-EGFR-C797S, it took 2.5 µM to inhibit growth by half (GI50).
